Patent publication US20170021023A1 (RESDEVCO RESEARCH AND DEVELOPMENT CO. LTD., priority 2005, published 2017)

Key:
epithelial conical cells = experiment: Rabbit eye drop treatment for 3 months, electron microscopy of epithelial cells; assay type: in vivo, rabbits; settings: preservatives such as benzalkonium chloride, cetrimonium bromide, sodium ethylene diamine tetraacetate
Method: 3 rabbits were treated for 3 months twice daily with eye drops, adjusted to pH 7.0. The average cross section of the epithelial conical cells and the percentage of damaged cells were evaluated by electron microscopy.

dry eye patients = experiment: Fluorescein Break Up Time (BUT) study in dry eye patients; assay type: in vivo, human; settings: concentration of 0.002%
From the text: The advantages resulting from the addition of a surface active agent include a decrease in the surface tension of the aqueous solution, thereby increasing the spread. […] It is accepted that a BUT of 10 sec. or less indicates dry eye syndrome; see Example 11 below.

Molecule | Effect on conical cell damage caused by preservatives (epithelial conical cells) | Effect on diminished Break Up Time (BUT) (dry eye patients)
OCC(O)CO [glycerol] | counteracts conical cell damage | –
polysorbate 80 | – | increases the diminished Break Up Time (BUT)
